# Laboratory results as given in patent publication US20130158362A1 (INFACARE PHARMACEUTICAL CORPORATION, priority 2011, published 2013).
# Test system: total serum bilirubin (TSB)
# Experiment: Phase 2b trial: total serum bilirubin (TSB), adjusted and unadjusted, change from baseline
# Assay type: in vivo, human
# Set-up: total serum bilirubin / total serum bilirubin, Delta (change from baseline) / Change from baseline of total serum bilirubin: unit not given here
# Details: for total serum bilirubin / total serum bilirubin, Delta (change from baseline): 48 hours, preliminary data; for change from baseline in adjusted TSB, LS mean (SEM) / change from baseline in adjusted TSB, LS mean difference versus placebo / change from baseline in unadjusted TSB, LS Mean (SEM) / change from baseline in unadjusted TSB, LS Mean Difference versus placebo / change from baseline in adjusted TSB, LS mean (SEM) (primary endpoint): ANCOVA; for change from baseline in adjusted TSB, LS mean difference versus placebo, MMRM / change from baseline in adjusted TSB, LS means (SEM), MMRM: observed case
# Protocol: Three cohorts of subjects were recruited. This clinical study was designed to evaluate safety and efficacy parameters in each cohort.
# Scheduled assessments (including TSB) occurred before treatment and at 0.75 and 2 hours (or 1.5 and 3 hours, depending on PK blood sampling assignment); 6, 12, 24, 48, and 72 hours; and 14 and 30 (except TSB) days after treatment or early termination.
# The primary efficacy endpoint was the change in adjusted TSB from baseline to 48 hours after treatment. The adjusted TSB was a calculation of the percentage variance of the TSB level from the age specific threshold for PT initiation per the AAP Guidelines, i.e., an indication of the distance below the PT threshold by time.
# The Secondary Efficacy Endpoints were the change from baseline in unadjusted TSB at 48 hours after treatment, change from baseline in adjusted and unadjusted TSB at various other time points after treatment, percent change from baseline in unadjusted TSB, proportion of subjects who require PT/exchange transfusion (ET), time to PT/ET, duration of PT and time to hospital discharge.
# Intent-to-treat population (ITT): Defined as all subjects who were randomly assigned treatment in the clinical study, had received IMP, and had at least 1 post baseline TSB measurement during the first 48 hours after treatment. Subjects were summarized based on randomized treatment.
# Analysis of Efficacy Parameters: The primary efficacy analysis applied the analysis of covariance (ANCOVA) method to determine if there was a significant difference between treatment groups in change in adjusted TSB levels from baseline to 48 hours post baseline after controlling for the effects of gestational age and adjusted baseline TSB levels. If assumptions of ANCOVA appeared to be violated, a Wilcoxon rank-sum test could be performed instead. Time-to-event variables were analyzed using the Kaplan-Meier method, and Kaplan-Meier survival curves were presented.
# [1] = 1.5 mg/kg, 6 hrs, unadjusted TSB, ITT Population
# [2] = 1.5 mg/kg, 12 hrs, unadjusted TSB, ITT Population
# [3] = 1.5 mg/kg, 24 hrs, unadjusted TSB, ITT Population
# [4] = 1.5 mg/kg, 48 hrs, unadjusted TSB, ITT Population
# [5] = 1.5 mg/kg, baseline, PP Population
# [6] = 1.5 mg/kg, baseline, unadjusted TSB, ITT Population
# [7] = 3.0 mg/kg IM, 48 h/early termination, ITT, LOCF
substance,measurement,setting,value
tin IV mesoporphyrin IX dichloride [Stannsoporfin],"6 hrs TSB, Mean (SD)",[1],9.09 (2.175) mg/dL
same,"6 hrs TSB, Min",[1],5.1 mg/dL
same,"12 hrs Percent Change from Baseline in TSB, Max",[2],73.2%
same,"12 hrs Percent Change from Baseline in TSB, Mean (SD)",[2],29.91 (21.467) %
same,"12 hrs Percent Change from Baseline in TSB, Min",[2],−12.8%
same,"12 hrs TSB, Max",[2],14.3 mg/dL
same,"12 hrs TSB, Mean (SD)",[2],9.82 (2.599) mg/dL
same,"12 hrs TSB, Min",[2],5.6 mg/dL
same,"24 hrs Percent Change from Baseline in TSB, Max",[3],66.1%
same,"24 hrs Percent Change from Baseline in TSB, Mean (SD)",[3],30.23 (27.126) %
same,"24 hrs Percent Change from Baseline in TSB, Median",[3],38.20%
same,"24 hrs Percent Change from Baseline in TSB, Min",[3],−33.3%
same,"24 hrs TSB, Max",[3],12.2 mg/dL
same,"24 hrs TSB, Mean (SD)",[3],9.61 (2.566) mg/dL
same,"24 hrs TSB, Min",[3],5.2 mg/dL
same,"48 hrs Percent Change from Baseline in TSB, Max",[4],82.3%
same,"48 hrs Percent Change from Baseline in TSB, Mean (SD)",[4],32.71 (37.298) %
same,"48 hrs Percent Change from Baseline in TSB, Min",[4],−57.7%
same,"48 hrs TSB, Max",[4],13.5 mg/dL
same,"48 hrs TSB, Mean (SD)",[4],9.85 (3.208) mg/dL
same,"48 hrs TSB, Min",[4],3.3 mg/dL
same,mean TSB levels,"1.5 mg/kg, 14 days after treatment (text, not LOCF table)",3.06 mg/dL
same,"Baseline unadjusted TSB, Max",[5],12.0 mg/dL
same,"Baseline unadjusted TSB, Mean (SD)",[5],7.52 (2.030) mg/dL
same,"Baseline unadjusted TSB, Median",[5],7.35 mg/dL
same,"Baseline unadjusted TSB, Min",[5],4.3 mg/dL
same,"Baseline TSB, Max",[6],12.0 mg/dL
same,"Baseline TSB, Mean (SD)",[6],7.59 (1.816) mg/dL
same,"Baseline TSB, Min",[6],4.3 mg/dL
same,total serum bilirubin,"3.0 mg/kg IM (N = 13), treated per protocol",10.53 ± 2.9
same,"adjusted TSB, Mean (SD)","3.0 mg/kg IM, 6 h, ITT, LOCF",−13.20 (13.118) %
same,"change from baseline in adjusted TSB, Mean (SD)","3.0 mg/kg IM, 6 h, ITT, LOCF",2.72 (7.274) %
same,"change from baseline in adjusted TSB, Median","3.0 mg/kg IM, 6 h, ITT, LOCF",2.10%
same,"change from baseline in unadjusted TSB, Mean (SD)","3.0 mg/kg IM, 6 h, ITT, LOCF",1.53 (0.762) mg/dL
same,"change from baseline in unadjusted TSB, Median","3.0 mg/kg IM, 6 h, ITT, LOCF",1.35 mg/dL
same,"unadjusted TSB, Mean (SD)","3.0 mg/kg IM, 6 h, ITT, LOCF",9.74 (1.730) mg/dL
same,"unadjusted TSB, Median","3.0 mg/kg IM, 6 h, ITT, LOCF",9.90 mg/dL
same,"change from baseline in adjusted TSB, LS mean (SEM)","3.0 mg/kg IM, 6 h, ITT, LOCF",2.57 (2.186) %
same,"change from baseline in adjusted TSB, LS mean difference versus placebo","3.0 mg/kg IM, 6 h, ITT, LOCF",−1.82%
same,"change from baseline in unadjusted TSB, LS Mean (SEM)","3.0 mg/kg IM, 6 h, ITT, LOCF",1.39 (0.254) mg/dL
same,"change from baseline in unadjusted TSB, LS Mean Difference versus placebo","3.0 mg/kg IM, 6 h, ITT, LOCF",-0.20 mg/dL
same,"change from baseline in adjusted TSB, LS mean difference versus placebo, MMRM","3.0 mg/kg IM, 6 h, ITT",−1.69%
same,"change from baseline in adjusted TSB, LS means (SEM), MMRM","3.0 mg/kg IM, 6 h, ITT",2.68 (2.252) %
same,"adjusted TSB, Mean (SD)","3.0 mg/kg IM, 12 h, ITT, LOCF",−15.06 (13.787) %
same,"change from baseline in adjusted TSB, Mean (SD)","3.0 mg/kg IM, 12 h, ITT, LOCF",0.87 (9.503) %
same,"change from baseline in adjusted TSB, Median","3.0 mg/kg IM, 12 h, ITT, LOCF",1.55%
same,"change from baseline in unadjusted TSB, Mean (SD)","3.0 mg/kg IM, 12 h, ITT, LOCF",2.05 (1.004) mg/dL
same,"change from baseline in unadjusted TSB, Median","3.0 mg/kg IM, 12 h, ITT, LOCF",1.90 mg/dL
same,"unadjusted TSB, Mean (SD)","3.0 mg/kg IM, 12 h, ITT, LOCF",10.26 (1.748) mg/dL
same,"unadjusted TSB, Median","3.0 mg/kg IM, 12 h, ITT, LOCF",10.90 mg/dL
same,"change from baseline in adjusted TSB, LS mean (SEM)","3.0 mg/kg IM, 12 h, ITT, LOCF",2.64 (3.209) %
same,"change from baseline in adjusted TSB, LS mean difference versus placebo","3.0 mg/kg IM, 12 h, ITT, LOCF",−4.50%
same,"change from baseline in unadjusted TSB, LS Mean (SEM)","3.0 mg/kg IM, 12 h, ITT, LOCF",2.06 (0.393) mg/dL
same,"change from baseline in unadjusted TSB, LS Mean Difference versus placebo","3.0 mg/kg IM, 12 h, ITT, LOCF",-0.54 mg/dL
same,"change from baseline in adjusted TSB, LS mean difference versus placebo, MMRM","3.0 mg/kg IM, 12 h, ITT",−5.14%
same,"change from baseline in adjusted TSB, LS means (SEM), MMRM","3.0 mg/kg IM, 12 h, ITT",0.83 (2.821) %
same,"adjusted TSB, Mean (SD)","3.0 mg/kg IM, 24 h, ITT, LOCF",−24.46 (11.302) %
same,"change from baseline in adjusted TSB, Mean (SD)","3.0 mg/kg IM, 24 h, ITT, LOCF",−8.53 (16.045) %
same,"change from baseline in adjusted TSB, Median","3.0 mg/kg IM, 24 h, ITT, LOCF",−3.10%
same,"change from baseline in unadjusted TSB, Mean (SD)","3.0 mg/kg IM, 24 h, ITT, LOCF",1.85 (1.596) mg/dL
same,"change from baseline in unadjusted TSB, Median","3.0 mg/kg IM, 24 h, ITT, LOCF",2.08 mg/dL
same,"unadjusted TSB, Mean (SD)","3.0 mg/kg IM, 24 h, ITT, LOCF",10.06 (1.757) mg/dL
same,"unadjusted TSB, Median","3.0 mg/kg IM, 24 h, ITT, LOCF",10.45 mg/dL
same,"change from baseline in adjusted TSB, LS mean (SEM)","3.0 mg/kg IM, 24 h, ITT, LOCF",−9.21 (4.598) %
same,"change from baseline in adjusted TSB, LS mean difference versus placebo","3.0 mg/kg IM, 24 h, ITT, LOCF",−9.12%
same,"change from baseline in unadjusted TSB, LS Mean (SEM)","3.0 mg/kg IM, 24 h, ITT, LOCF",1.67 (0.578) mg/dL
same,"change from baseline in unadjusted TSB, LS Mean Difference versus placebo","3.0 mg/kg IM, 24 h, ITT, LOCF",-1.08 mg/dL
same,"change from baseline in adjusted TSB, LS mean difference versus placebo, MMRM","3.0 mg/kg IM, 24 h, ITT",−7.01%
same,"change from baseline in adjusted TSB, LS means (SEM), MMRM","3.0 mg/kg IM, 24 h, ITT",−8.57 (3.894) %
same,"adjusted TSB, Mean (SD)",[7],−31.80 (18.214) %
same,"adjusted TSB, Median",[7],−24.75%
same,"change from baseline in adjusted TSB, Mean (SD)","3.0 mg/kg IM, 48 h, ITT, LOCF",−15.88 (21.406) %
same,"change from baseline in adjusted TSB, Median","3.0 mg/kg IM, 48 h, ITT, LOCF",−9.05%
same,"change from baseline in unadjusted TSB, Mean (SD)","3.0 mg/kg IM, 48 h, ITT, LOCF",2.47 (2.703) mg/dL
same,"change from baseline in unadjusted TSB, Median","3.0 mg/kg IM, 48 h, ITT, LOCF",2.94 mg/dL
same,"unadjusted TSB, Mean (SD)","3.0 mg/kg IM, 48 h, ITT, LOCF",10.68 (2.956) mg/dL
same,"unadjusted TSB, Median","3.0 mg/kg IM, 48 h, ITT, LOCF",11.65 mg/dL
same,"change from baseline in adjusted TSB, LS mean (SEM) (primary endpoint)","3.0 mg/kg IM, 48 h, ITT, LOCF",−11.60 (5.612) %
same,"change from baseline in adjusted TSB, LS mean difference versus placebo","3.0 mg/kg IM, 48 h, ITT, LOCF",−10.02%
same,"change from baseline in unadjusted TSB, LS Mean (SEM)","3.0 mg/kg IM, 48 h, ITT, LOCF",2.90 (0.886) mg/dL
same,"change from baseline in unadjusted TSB, LS Mean Difference versus placebo","3.0 mg/kg IM, 48 h, ITT, LOCF",-1.34 mg/dL
same,"change from baseline in adjusted TSB, LS mean (SEM) (primary endpoint)","3.0 mg/kg IM, 48 h, ITT, LOCF, listed as stannsoporfin",11.6%
same,"change from baseline in adjusted TSB, LS mean difference versus placebo, MMRM","3.0 mg/kg IM, 48 h, ITT",−9.24%
same,"change from baseline in adjusted TSB, LS means (SEM), MMRM","3.0 mg/kg IM, 48 h, ITT",−15.92 (4.919) %
same,total serum bilirubin,"3.0 mg/kg IM, intent to treat",10.68 ± 3.0
same,"total serum bilirubin, Delta (change from baseline)","3.0 mg/kg IM, intent to treat",2.47 ± 2.7
same,"total serum bilirubin, Delta (change from baseline)","3.0 mg/kg IM, treated per protocol",2.20 ± 2.9
same,"adjusted TSB, Mean (SD)","3.0 mg/kg IM, 72 h/early termination, ITT, LOCF",−42.64 (21.640) %
same,"change from baseline in adjusted TSB, Mean (SD)","3.0 mg/kg IM, 72 h, ITT, LOCF",−26.72 (24.245) %
same,"change from baseline in adjusted TSB, Median","3.0 mg/kg IM, 72 h, ITT, LOCF",−17.30%
